Results as given in article PMC5301048, “Selection and early clinical evaluation of the brain‐penetrant 11β‐hydroxysteroid dehydrogenase type 1 (11β‐HSD1) inhibitor UE2343 (Xanamem™)” (British Journal of Pharmacology, 2017).
Read-outs that look alike come from different tables or passages of the source.

Key:
11β‐HSD1 in the liver = test: Single ascending dose study, urinary THFs/THE ratio; assay type: in vivo; details: human
Experimental: A double‐blind, randomized, placebo‐controlled single ascending dose study was carried out at Simbec Research Ltd, Merthyr Tydfil, UK. Each cohort consisted of six healthy male subjects and two females of non‐child bearing potential. Two male ‘dose leader’ subjects (1 active : 1 placebo) were dosed first in each cohort. The remainder of the cohort (5 active : 1 placebo) were dosed 24 h later. Dose cohorts were 2, 5, 10, 18, 25 and 35 mg. Safety, pharmacokinetic and pharmacodynamic assessments were made at pre‐determined time‐points during each part of the study. Dose escalation was dependent upon satisfactory review of the blinded safety (up to Day 6) and pharmacokinetic (up to 24 h post‐dose) data from the preceding cohort.
Laboratory evaluation of clinical safety parameters was carried out using standard validated methods. Measurement of plasma pharmacodynamic markers [adrenocorticotropic hormone (ACTH), cortisol, 4‐androstenedione, testosterone and dehydroepiandrosterone sulphate (DHEA‐s)] was carried out using commercially available kits. Each method was fully validated prior to analysis. Urinary steroid metabolites were measured according to established methods (Boonen et al., 2013). UE2343 levels in plasma, urine and CSF was determined by LC–MS/MS using fully validated methods.
The data and statistical analysis comply with the recommendations on experimental design and analysis in pharmacology (Curtis et al., 2015). Levels of probability, P < 0.05 were deemed to constitute the threshold for statistical significance. Pharmacokinetic parameters, except Tmax (time of maximum observed drug concentration), are given as mean ± coefficient of variation (CV%). Tmax is given as median ± range. For each of the pharmacodynamic parameters [ACTH, cortisol, adrenal androgens, tetrahydrocortisols (THFs)/tetrahydrocortisone (THE) ratio], the maximum % change from baseline for each subject was subjected to ANOVA. For selected data, an additional covariate factor for the baseline was also included in the ANOVA/analysis of covariance (ANCOVA) model. Associated P‐values <0.05 for each comparison have been presented.
11β‐HSD1 is predominantly located in the liver and adipose tissue. Cortisol (F) and cortisone (E) are cleared from the liver via the enzymes 5α‐reductase and 3α‐HSD to generate tetrahydro (TH) metabolites that are eliminated in the urine. Measurement of urinary TH metabolite ratios thus provides a surrogate measure of 11β‐HSD1 inhibition in the liver (Best and Walker, 1997). Following a single dose of UE2343, there was a statistically significant reduction in the urinary THFs/THE ratio between 0 and 4 h at doses of 18, 25 and 35 mg, equating to a reduction of 58, 55 and 50% respectively (Figure 4A).

[1] = Tissue exposure measurements in rats (plasma and brain); assay type: in vivo; details: rat
Experimental: The circulating plasma levels and tissue distribution of compounds were determined according to the method described in WO2011135276 (Webster et al., 2011a). Animals were group‐housed, had free access to food and water and were maintained in accordance with UK Home Office regulations. The animal work was conducted under UK Home Office Project Licence no. PPL 60/3915.
Compounds were prepared in 0.9% saline containing 2% DMSO (v^.v^‐1) and 38% PEG400 (v^.v^‐1) and administered to male Sprague Dawley rats by oral gavage such that the final concentration of compound was 10 mg·kg^−1. Rats (n = 3 per time point) were killed by decapitation at 1, 4 and 6 h post dosing, and trunk blood and tissues (liver, adipose and brain) were excised. Blood samples at 0.5 and 2 h post dosing were taken by a tail nick from the 4 and 6 h rats respectively.
Compounds were triple extracted from plasma (prepared from blood by a high speed centrifugation step) and spiked with 1 μg of a standard compound using ethyl acetate. Extracts were dried under nitrogen and re‐suspended in 60% methanol/40% ammonium acetate (5 mM).
A known weight of tissue was homogenized in 3 volumes of Krebs buffer. The compound was triple extracted with ethyl acetate from the supernatant of a low speed spin spiked with […] of a standard compound. Extracts were dried under nitrogen and re‐suspended in 60% methanol/40% ammonium acetate (5 mM).
Samples from plasma and tissue were analysed by TSQ Quantum Discovery Tandem Mass Spectrometer and Surveyor Liquid Chromatogram (Thermo, Hemel‐Hempstead, UK). Then 10 μL of each sample was injected in a mobile phase consisting of 60% methanol/40% ammonium acetate (5 mM) at a flow rate of 0.5 mL·min^−1. The column used was a BDS hypersil C18, 50 × 2.1 mm with a 5 μm particle size.
Each compound was tuned with a spray voltage of 3000 V and a capillary temperature of 300°C, and values for tube lens, CID and product ions were determined. The peak area for each compound and for the internal standard was determined, and the concentration of compound ^. g^‐1 of tissue or mL^‐1 of plasma was calculated by comparison of the peak area ratio to a standard curve.

## O=C(c1csc(-c2cn[nH]c2)c1)N1C2CCC1CC(O)(c1ncccn1)C2 (stereo not drawn) [compound 4]
11β‐HSD1 in the liver; single dose 10 mg, 4–8 h
  reduction in the urinary THFs/THE ratio: 79%
11β‐HSD1 in the liver; single dose 18 mg, 0–4 h
  reduction in the urinary THFs/THE ratio: 58%
11β‐HSD1 in the liver; single dose 18 mg, 4–8 h
  reduction in the urinary THFs/THE ratio: 86%
11β‐HSD1 in the liver; single dose 25 mg, 0–4 h
  reduction in the urinary THFs/THE ratio: 55%
11β‐HSD1 in the liver; single dose 25 mg, 4–8 h
  reduction in the urinary THFs/THE ratio: 83%
11β‐HSD1 in the liver; single dose 35 mg, 0–4 h
  reduction in the urinary THFs/THE ratio: 50%
11β‐HSD1 in the liver; single dose 35 mg, 4–8 h
  reduction in the urinary THFs/THE ratio: 83%
[1]; male, Sprague Dawley, brain (relative to free plasma), oral, 10 mg·kg^−1, rat plasma protein binding taken into account, read-out: brain : plasma free ratio
  Kp: 0.43
[1]; male, Sprague Dawley, brain and plasma, 10 mg·kg^−1 oral gavage, read-out: Brain : plasma ratio
  Kp: 0.11
[1]; male, Sprague Dawley, plasma, po, 10 mg/kg, 10 mg·kg^−1 oral gavage, mean ± SD
  Cmax: 1540 ± 657 ng/mL
[1]
  level in brain as % of the free plasma concentration: 43%
[1]; 10 mg·kg^−1 oral gavage, mean ± SD
  Brain Cmax: 173 ± 80 ng/mL
